Measurements: patent US4000269A, “S-(α-substituted-arylmethylthio, -arylmethylsulfinyl, and -arylmethylsulfonyl)methyl phosphorus esters used as insecticides” (priority 1975, dated 1976)
Read-outs that look alike come from different tables or passages of the source.

Legend:
Type in all cases: in vivo
[1] = tested on: Boll Weevil (Anthonomus grandis); experiment: B. Boll Weevil leaf-dip test; details: 48 h, read-out: Percent Mortality, Boll Weevil
Method: (§1) Test compounds are prepared as 1000 ppm. solutions in 10 % acetone, 0.2 % Alrodyne 315 , and 89.8 % water. A tenfold dilution is made with 65 % acetone and 35 % water. The first or second true leaf of young cotton plants is dipped for 3 to 5 seconds in the test solution and placed in an exhaust hood to dry. When dry, each leaf is placed in a 4 -inch petri dish with a moist filter paper on the bottom. Ten adult boll weevils are removed from the stock culture and placed in the petri dish. The dishes are covered and held at 80° F. and 50 % R.H. After 2 days, mortality counts are made.

[2] = tested on: Malaria Mosquito (Anopheles quadrimaculatus); experiment: H. Malaria Mosquito Adult Test; details: 24 h, adults, 1 day, read-out: Percent Mortality, Malaria Mosquito
Method: Solutions of 65% acetone/35% water containing 10 ppm. of test compound are poured into wide-mouth 2-ounce jars, each containing a microscope slide. The slides are removed from the test solution with forceps and laid horizontally to dry on a wide-mouth 4-ounce bottle. When dry, they are placed in the same 4-ounce bottle and 10 4- to 5-day-old mosquitoes of mixed sexes are added to each bottle. A piece of cotton gauze held on by an elastic band serves as a lid, and wad of cotton soaked in 10% honey solution serves as food. Mortality counts are made after 1 day at 80° F., 50% R.H. (relative humidity) Data obtained with the above procedures are reported in Table II below.

[3] = tested on: Southern Armyworm (Prodenia eridania); experiment: D. Southern Armyworm leaf-dip test; details: Spodoptera eridania, 48 h, read-out: Percent Mortality, Southern Armyworm
Method: Compounds are tested at 1000 and 100 ppm. in solution or suspension in 65 % acetone/35 % water. Sieva lima bean primary leaves are dipped for 3 seconds in the test solution and set in a hood on a screen to dry. When dry, each leaf is placed in a 4 -inch petri dish which has a moist filter paper in the bottom and ten third-instar armyworm larvae about 3/8 inch long. The dishes are covered and held at 80° F., and 60 % R.H. After 2 days, mortality counts and estimates of the amount of feeding are made. Compounds showing partial kill and/or inhibition of feeding are held an extra day for further observations.

[4] = tested on: Mexican Bean Beetle (Epilachna varivestis); experiment: F. Mexican Bean Beetle leaf-dip test; details: 48 h, 2 days, read-out: Percent Mortality, Mexican Bean Beetle
Method: Compounds to be tested are made up as 100 or 10 ppm. solutions in 65 % acetone/35 % water. Sieva lima bean leaves are dipped in the test solution and set in the hood to dry. When dry, they are placed in 4 -inch petri dishes which have a moist filter paper in the bottom, and 10 third-instar bean beetles are added to each dish. The dishes are covered and held at 80° F., 60 % R.H. After 2 days, mortality counts and estimates of the amount of feeding are made. Compounds showing kills greater than 75 % are further tested at tenfold dilutions in 65 % acetone/35 % water.

[5] = tested on: Tarnished Plant Bug (Lygus lineolaris); experiment: A. Tarnished Plant Bug leaf-dip test; details: 48 h, read-out: Percent Mortality, Tarnished plant Bug
Method: as §1, with “The primary leaves” for “The first or second true leaf”, “of Sieva lima bean” for “of young cotton”, “plants are” for “plants is”, “test solutions” for “test solution”, “adult Lygus bugs” for “adult boll weevils”, “are aspirated” for “are removed”

Bean Aphid (Aphis fabae) = experiment: C. Bean Aphid spray test; details: 48 h, read-out: Percent Mortality, Bean Aphid
Method: Compounds are tested at 100 , 10 and 1 ppm. in solution or suspension in 65 % acetone/35 % water. Two-inch fiber pots each containing a nasturtium plant 2 inches high and infested with about 150 aphids 2 days earlier, are placed on a turntable (4 RPM) and sprayed for two revolutions with a No. 154 DeVilbiss Atomizer at 20 psi. air pressure. The spray tip is held about 6 inches from the plants, and the spray is directed so as to give complete coverage of the aphids and the plants. The sprayed plants are laid on their sides on white enamel trays. Mortality estimates are made after holding for 2 days at 70° F. and 50% R.H.

[6] = tested on: Two-spotted Spider Mite (Tetranychus urticae); experiment: E. Two-spotted Spider Mite plant-dip test; details: 48 h, read-out: Percent Mortality, Two-spotted Spider Mite; for mortality at 100 ppm: 2 days
Method: Sieva lima bean plants with primary leaves 3 to 4 inches long are infested with about 100 adult mites per leaf 4 hours before use in this test. The mite and egg infested plants are dipped for 3 seconds in the same solutions used in the aphid test, and the plants set in the hood to dry. They are held for 2 days at 80° F., 60% R.H., and the adult mite mortality estimated on one leaf under a steroscopic microscope. The other leaf is left on the plant an additional 5 days and then examined at 10 X power to estimate the kill of eggs and of newly hatched nymphs, giving a measure of ovicidal and residual action, respectively.

[7] = tested on: Western Potato Leafhopper (Empoasca abrupta); experiment: G. Western Potato Leafhopper plant-dip test; details: 48 h, 2 days, read-out: Percent Mortality, Western Potato Leafhopper
Method: Sieva lima bean plants with the primary leaf expanded to 3 to 4 inches are dipped into 100 or 10 ppm. 50 % acetone/50 % water solutions and set in the hood to dry. A 1 -inch piece of the tip of a treated leaf is cut off and placed in a 4 -inch petri dish with a moist filter paper in the bottom. From 3 to 10 second-instar nymphs are tapped from the culture plants into the test dish and rapidly covered. Mortality counts are made after 2 days at 80° F., and 50 % R.H.

Row | SMILES | mortality at 100 ppm ([1]; 100 ppm., 2 days) | mortality at 10 ppm [2] | mortality at 100 ppm ([3]; 2 days) | mortality at 1000 ppm ([3]; 1000 ppm., 2 days) | mortality at 100 ppm [4] | mortality at 100 ppm ([5]; 100 ppm., 2 days) | mortality at 1 ppm (Bean Aphid (Aphis fabae); 1 ppm., 2 days) | mortality at 10 ppm (Bean Aphid (Aphis fabae); 2 days) | mortality at 100 ppm (Bean Aphid (Aphis fabae); 2 days) | mortality at 100 ppm [6] | mortality at 300 ppm [6] | mortality at 10 ppm [7] | mortality at 100 ppm [7] | mortality at 100 ppm [1] | mortality at 1000 ppm [3] | mortality at 100 ppm [5] | mortality at 1 ppm (Bean Aphid (Aphis fabae)) | mortality at 10 ppm [4]
1 | COP(=S)(OC)SCSC(C)(C)c1ccc(C#N)cc1 [drawing 9] | 90% | 60% | 100% | 100% | 90% | 0% | 100% | 100% | 100% | 100% | 100% | 100% | 100% |  |  |  |  | 
2 | COP(=S)(OC)SCSC(C)(C)c1cccc(Cl)c1Cl [drawing 12] |  | 90% | 0% |  | 60% |  |  |  |  | 0% | 0% |  | 100% | 0% | 100% | 0% | 75% | 
3 | CCOP(=S)(OCC)SCSC(C)(CC)c1ccccc1 (stereo not shown) [drawing 14] | 0% | 70% | 0% | 100% | 0% | 0% | 100% | 100% | 100% | 0% | 50% | 0% | 100% |  |  |  |  | 
4 | COP(=S)(OC)SCSC(C)(C)c1ccc(Cl)c(Cl)c1 [drawing 21] | 70% | 67% | 100% | 100% | 30% | 40% | 98% | 100% | 100% | 100% | 100% | 0% | 100% |  |  |  |  | 0%
5 | CCOP(=S)(OCC)SCSC(CC)(CC)c1ccccc1 [drawing 15] | 0% | 0% | 0% | 100% | 90% | 0% | 0% | 100% | 100% |  | 0% |  | 0% |  |  |  |  | 0%
6 | CCOP(=S)(OCC)SCSC(C)(C)c1cc(Cl)ccc1Cl [drawing 11] | 50% | 30% | 100% | 100% | 0% | 0% | 50% | 100% | 100% | 90% | 100% | 50% | 100% |  |  |  |  | 
7 | CCOP(=S)(OCC)SCSC(C)(C)c1ccccc1 [drawing 6] | 95% | 100% | 100% | 100% | 100% | 94% | 85% | 100% | 100% | 75% |  | 100% | 100% |  |  |  |  | 40%
8 | COP(=O)(SC)SCSC(C)(C)c1ccc(Cl)cc1 (stereo not shown) [drawing 23] | 90% | 0% | 0% | 100% | 40% | 0% | 95% | 100% | 100% | 0% | 50% | 0% | 100% |  |  |  |  | 0%
9 | CCOP(=S)(OCC)SCSC(C)(C)c1ccc(Cl)cc1 [drawing 18] | 0% | 75% | 100% | 100% | 100% | 0% | 90% | 100% | 100% | 100% | 100% | 100% | 100% |  |  |  |  | 40%
10 | CCOP(=S)(OCC)SCSC(C)(C)c1ccc(Cl)c(Cl)c1 [drawing 20] | 50% | 0% | 100% | 100% | 30% | 0% | 0% | 90% | 100% | 100% | 100% | 0% | 100% |  |  |  |  | 0%
